The subject of series [1] is P. yoelii blood stage infection in mice. Description: In vivo single-dose cure against murine malaria. The conditions noted are these: for Single dose cure: lowest single dose that cures all 4 mice, P. yoelii, prodrugs dosed on molar equivalency to parent drug. The method, then: Animals that remained aparasitemic out to […] were scored as cures.
In Vivo Single-Dose Efficacy against Murine Malaria. The effectiveness of selected 3-biarylELQs and prodrugs was assessed vs. the blood stage infection for single dose cures. Mice are infected iv with 3.5×10^4 P. yoelii infected RBCs as described for the 4-day test above. Drug administration occurred on the day after inoculation (Day 1). Test agents were dissolved in PEG-400 and administered ig once. On the 5th day blood films were prepared and % parasitemia was assessed. Animals remaining parasite-free for 30 days after drug administration were considered cured. The initial dosing range was: 0.5, 1, 2.5, 5, 10 mg/kg, including a control. Experiments were performed with 4 mice per group to ensure statistical accuracy. The reported parameter for these studies is the lowest single dose that provides a cure to all 4 animals in the group.

Series [2] relates to P. yoelii (Kenya Strain) blood stage infection in mice. Description: 4-day Peters test against murine malaria. The class given is in vivo. The protocol: On Day 5 a drop of blood was taken from the tail and a blood smear was prepared, fixed with methanol, and stained with Giemsa. The operator then examined the stained smear microscopically to determine percent parasitemia. Dosages of 0.0025, 0.005, 0.01, 0.03, 0.1, 0.3, 1.0 and 10 mg/kg/day were used for the experiment. […] In this model animals were inoculated exactly as for the 4-day test on Day 0 however drug was administered only on Day 1 while the operator made smears on Day 5 and again weekly thereafter for animals that remained aparasitemic. Animals that remained aparasitemic out to […] were scored as cures.
(§1) In Vivo Efficacy against Murine Malaria. The P. yoelii 4-day test monitors suppression of patent infection in female CF1 mice. The test began with the inoculation (iv) of parasitized erythrocytes (3.5×10^4/P. yoelli) (from a donor animal) on the first day of the experiment (D0). […] Initially the 3-biaryl-ELQs were tested at doses of 0.0025, 0.005, 0.01, 0.03, 0.1, 0.3, 1.0 and 10 mg/kg/day, including a vehicle-only (PEG400) control. After completion of drug treatment, a blood sample was collected (by pricking the tail vein) for determination of parasite burden beginning on the day after the final dose (D5). Percent parasitemia is assessed by direct microscopic analysis of Giemsa-stained blood smears. […] Animals with observable parasitemia following the experiment were euthanized; animals cleared of parasites from the bloodstream were observed daily with assessment of parasitemia performed weekly until day 30, at which point the animal(s) were scored as cured of infection. […] Non-linear regression analysis is used for objective determination of ED50's and ED90's from the accumulated data as well as the Non-Recrudescence Dose (NRD). The 4-day test protocol was reviewed and approved by the local IACUC board at the Portland VA Medical Center. Experiments were performed with 4 mice per group to ensure statistical accuracy.

Series [3] concerns the target T1, human liver cytochrome bc1 complex (Homo sapiens, UniProt P00156).
T1 construct: human host cytochrome bc1 complex isolated from human liver tissue; from tissue; host or cells: human liver tissue
The conditions noted are these: data taken from Nilsen et al., 2013 (a) or Frueh et al., 2017 (b); cited from earlier work.

Series [4] deals with P. falciparum D1 clone (ELQ-300 resistant). The experiment in a line: microbe, parasite or virus in culture. The conditions noted are these: Plasmodium falciparum, 72 h, read-out: P. falciparum IC50 values, nM D1. The class given is cell-based.
Series [5] addresses T2, P. falciparum cytochrome bc1 complex (Plasmodium falciparum, UniProt Q02768).
T2 construct: endogenous in cells
T2 sequence (Q02768 1-376): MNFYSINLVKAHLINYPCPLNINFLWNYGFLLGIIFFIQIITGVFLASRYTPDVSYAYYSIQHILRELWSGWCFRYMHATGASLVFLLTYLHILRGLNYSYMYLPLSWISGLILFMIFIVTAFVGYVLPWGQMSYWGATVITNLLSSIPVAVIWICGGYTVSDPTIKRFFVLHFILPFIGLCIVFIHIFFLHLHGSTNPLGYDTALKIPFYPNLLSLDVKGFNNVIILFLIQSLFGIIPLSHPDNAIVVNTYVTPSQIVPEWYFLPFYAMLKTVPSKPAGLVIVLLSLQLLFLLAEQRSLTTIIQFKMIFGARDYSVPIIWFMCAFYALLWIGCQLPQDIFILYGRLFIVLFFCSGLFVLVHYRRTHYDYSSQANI
To be noted: data taken from Nilsen et al., 2013 (a) or Frueh et al., 2017 (b); cited from earlier work.

For series [6], the system named is P. falciparum D6 strain (drug sensitive). Description: In vitro antiplasmodial activity, SYBR Green I assay, D6 strain. The class given is cell-based, Plasmodium falciparum. To be noted: Plasmodium falciparum; D6 strain; 72 h incubation; averages of quadruplicate with (95% confidence intervals); read-out: P. falciparum IC50 values, nM D6. The method, then: (§2) Rationale for Synthesis of a 3-Biaryl Version of ELQ-300. […] All of this information is stored in a database with information relating to chemical structure, physical chemical properties, cross resistance patterns, mammalian cell cytotoxicity, enzyme inhibitor profiles, and synthesis details. […] We employed the SyBr Green assay and the plates were incubated for 72 hours before harvesting^18, 19. […] Stock solutions were freshly prepared in DMSO.
(§3) Plasmodium falciparum Culture. Laboratory strains of P. falciparum were cultured in human erythrocytes by standard methods. The parasites were grown in culture medium with fresh human erythrocytes maintained at 2% hematocrit at 37° C. in low-oxygen conditions (5% O2, 5% CO2, […] balance N2). […] Cultures were maintained at less than 10% parasitemia by transfer of infected cells to fresh erythrocytes and culture medium every 3 or 4 days.
(§4) In vitro drug susceptibility assays. SYBR green I assay. In vitro antiplasmodial activity was assessed using a published SYBR Green I fluorescence-based method. The drugs were added to 96-well plates using 2-fold serial dilutions in complete medium. […] Asynchronous P. falciparum parasites were diluted with uninfected erythrocytes and added to the wells to give a final culture volume of 100 μl at 2% hematocrit and 0.2% parasitemia. […] The parasites were then lysed by adding 100 μl of SYBR green I lysis buffer containing 0.2 μl/ml SYBR green I dye (10,000×) in 20 mM Tris (pH 7.5), 5 mM EDTA, 0.008% (wt/vol) saponin, and 0.08% (vol/vol) Triton X-100. The plates were incubated at room temperature for an hour in the dark. […] If the IC50 value fell outside of the initial tested range then the range was adjusted up or down and the assay was repeated.

Series [7] is described as follows: HepG2 cytotoxicity, TiterGlo ATP luminescence, galactose medium. Format: cell-based, human. To be noted: human. The protocol:
[…]. Of course, enhanced potency is desirable only if unaccompanied by enhanced toxicity. […] […]. The incubation period for these experiments was 48 hours.

For series [8], the system named is P. falciparum Dd2 strain (multidrug resistant). The experiment in a line: microbe, parasite or virus in culture. The class given is cell-based, Plasmodium falciparum. To be noted: read-out: P. falciparum IC50 values, nM Dd2; Dd2 strain; 72 h incubation; averages of quadruplicate with (95% confidence intervals). The method, then: as §2, §3, §4
The test system of series [9] is P. falciparum cytochrome bc1 complex. Description: biochemical. To be noted: based on enzyme inhibitory activity. From the text: (§5) Isolation of Plasmodium falciparum Mitochondria and Ubiquinol-Cytochrome c Oxidoreductase Assay.
Series [10] deals with P. falciparum Tm90-C2B (atovaquone-resistant clinical isolate). Description: In vitro antiplasmodial activity, SYBR Green I assay, Tm90-C2B. To be noted: Plasmodium falciparum; Tm90-C2B strain; 72 h incubation; averages of quadruplicate with (95% confidence intervals); read-out: P. falciparum IC50 values, nM Tm90-C2B. The class given is cell-based. The protocol:
as §2, §3, §4

A short description of series [11]: Appearance, behaviour and weight observations in the in vivo efficacy-testing model. The conditions noted are these: mice, at any dose level of the efficacy tests. The method, then: as §1
The target of series [12] is T1, human liver cytochrome bc1 complex. The experiment in a line: Inhibition of human cytochrome bc1 complex. The class given is biochemical. The conditions noted are these: complex isolated from human liver tissue. The text has this:
Human Cytochrome bc1 Assays.

In series [13] the target is T2, P. falciparum cytochrome bc1 complex. The experiment in a line: biochemical. The conditions noted are these: cytochrome bc1 activity from P. falciparum mitochondria.
Source text: as §5

Where [14] appears, read: P. yoelii in mice, oral gavage in PEG400 on Days 1-4, prodrugs dosed on molar equivalency to parent drug.

The structures appear in SMILES notation. Like-named read-outs stand apart in the source and are kept apart here.

As usually defined, the IC50 is the concentration at which inhibition is half-maximal. What is called EC50 is the concentration that produces a half-maximal response. Read a high EC50 as a need for much substance. For the compound `COc1cc2[nH]c(C)c(-c3ccc(Oc4ccc(OC(F)(F)F)cc4)cc3)c(=O)c2cc1Cl` [ELQ-300, reference compound], the Single dose cure in series [1] (dose on Day 1) is over 25 mg/kg/day. Moreover, the “4-day Peters Test Results ED90” value in [2] (setting [14]) came out at 0.06 mg/kg/day. The “4-day Peters Test Results NRD (non-recrudescence dose)” value in series [2] (setting [14]) came out at 1.0 mg/kg/day. Also, the half-maximal inhibitory concentration (IC50) was over 10000 nM in series [3]; 168 nM in series [4]; 0.56 nM in series [5]; 3.3 nM in series [6]; 4.2 nM in series [8]; 2.5 nM in [10]. The EC50 at 48 h in series [7] was over 10000 nM. The “Selectivity Index Human/Pf cyt. bc1” value in series [9] was ≥18,000.
As for `CCOC(=O)OCOc1c(-c2ccc(-c3ccc(OC(F)(F)F)cc3)cc2)c(C)nc2cc(OC)c(Cl)cc12` [ELQ-598, ((6-chloro-7-methoxy-2-methyl-3-(4′-(trifluoromethoxy)-[1,1′-biphenyl]-4-yl)quinolin-4-yl)oxy)methyl ethyl carbonate], in series [1] (P. yoelii in mice, dose on Day 1, lowest dose tested to date, as parent drug equivalent), the “lowest fully protective single dose cure” value worked out at 0.5 mg/kg. Moreover, the “more effective as a single dose cure compared directly to ELQ-331” value in [1] (blood stage malaria infections in mice) is “at least 6 times”. The Single dose cure in series [1] (dose on Day 1) is on record as at most 0.5 mg/kg/day. The “lowest fully protective single dose cure, mg/kg of prodrug” value in [1] (same result expressed as mass of prodrug) is 0.6 mg/kg. The “ED50, ED90 and NRD lower than for ELQ-300 and ELQ-331” value in [2] (4-day test) was “roughly 3 fold”. Besides, in series [2] (setting [14]), the “4-day Peters Test Results ED50” value came to 0.006 mg/kg/day, the “4-day Peters Test Results ED90” value was 0.01 mg/kg/day and the “4-day Peters Test Results NRD (non-recrudescence dose)” value is 0.1 mg/kg/day. Besides, the “appearance, behavioral or weight changes after dosing” value in [11] is “no appearance, behavioral or weight changes”. Moreover, the IC50 in series [12] was over 10000 nM. In addition, the IC50 in series [6] was found to be 1.5 nM. The compound further returned an EC50 at 48 h in series [7] of over 10000 nM. Also, the “P. falciparum cytochrome bc1, nM” value in [13] is recorded as “only feeble inhibitory activity”. Besides, the IC50 in [10] came out at 0.8 nM.

Values taken from patent US20250353828A1, “SUBSTITUTED BIARYL ENDOCHIN-LIKE QUINOLONES WITH ENHANCED ANTIPARASITIC ACTIVITY” (Oregon Health & Science University, priority 2022, published 2025).
